We go through one compound from patent US7933647B2, “Methods of increasing lipolysis” (Transfert Plus, S.E.C., priority 2005, dated 2011).

The subject of assay [1] is adipocytes. Briefly: Adipocyte lipolysis in the biphasic electrical stimulation study, adipocytes from 4 women (Example III). Format: cell-based, human. The following applies: suprailiac adipocytes of 4 women aged 40-52; non significant level (FIG. 2). The procedure:
It was tested if biphasic electrical stimulation can induce lipolysis in adipocyte. 4 women between 40-52 years of age were used as subject. Adipose tissue was obtained from suprailiac areas through liposuction. It is disclosed that isoproterenol (ISO) increased adipocyte lipolysis by 15% i.e. at a non significant level (FIG. 2). […] Moreover, the 4 mA biphasic stimulation increased basal lipolysis by 1.8 x thus at a lower level than the 6 mA stimulation.

For assay [2], the system named is adipocytes. The experiment in a line: Adipocyte lipolysis measured by glycerol release from isolated adipocytes (Examples I-II). The following applies: isoproterenol 10^-4 M, 30 minutes. Format: cell-based, human. The procedure:
Tissue samples. Adipose tissues were obtained from 11 pre-menopaused women, aged under 45, who were undergoing liposuction or an aesthetic surgery in the supra-iliac region. Adipocyte isolation. The adipose tissues were first placed in Krebs buffer and transported to the laboratory. Fragments of fresh adipose tissue were then incubated in a collagenase type II solution (reconstituted in Krebs buffer, 5 mg of collagenase per gm of tissue; Sigma) for 30 minutes at 37° C. under agitation (100 rpm) in a controlled atmosphere (95% O2, 5% CO2) (Rodbell, 1964). After the incubation period, the cellular suspension was filtered through a 250 μm nylon mesh and separated from the stromal and vascular fraction by flotation. […] Adipocytes were counted using a Neubauer hemacytometer using trypan blue dye. […] Because free fatty acids can be re-esterified Inside the adipocyte while glycerol is not, lipolysis was evaluated by measuring the release of glycerol. Glycerol was indirectly measured by assessing the formation of NADH produced during its enzymatic transformation. NADH was measured using a spectrophotometer (Pharmacia LKB-Novaspec), at a wavelength of 340 nm. Results are expressed as μmol of glycerol released per 10^6 adipocytes per 30 minutes. […] The mean and standard deviation were calculated.

`CC(C)NCC(O)c1ccc(O)c(O)c1` (stereo not drawn) [isoproterenol]: in the assay with adipocytes [1], the “Increase of adipocyte lipolysis” value was 15%. Also, the “Increase of adipocyte lipolysis compared to control values (BASAL)” value with adipocytes [2] was 2.6 fold. For the same compound, in the assay with adipocytes [2] (37° C., N=11 individuals, BASAL mean 1.4), the “Mean glycerol released (lipolysis)” value is 3.7 μM of glycerol.
